Source: patent US5814634A, “Alkylenediamine derivative anti-ulcer drug and antibacterial drug” (Shiseido Co. Ltd., priority 1996, dated 1998)
Where two headings read alike, the source gives them in different places.

Key:
stress ulcer = experiment: WIS: Restraint and Water Immersion Stress-Induced Ulcer Inhibition Test; format: in vivo, rat (male Crj:SD or Slc:SD); conditions: 100 mg/kg oral, rats, water immersion stress 7 hours
Procedure: WIS: Restraint and Water Immersion Stress-Induced Ulcer Inhibition Test
The degree of inhibition of the stress ulcer formation is tested.
Male Crj:SD or Slc:SD rats (6 to 7-week-old) were fasted overnight, but allowed free access to water. Each group has 5 to 8 of these rats. The sample compound was dissolved or suspended in an aqueous solution of 0.3% sodium carboxymethylcellulose or 0.05% Tween 80 and then was orally administered (100 mg/10 ml/kg). To a control group, the vehicle was administered. 10 minutes later, the rats were placed in a stress cage and immersed to the level of xipfoid process in a water bath (21° C.) for 7 hours. At the end of the stress, the rats were sacrificed by inhalation of ether or carbon dioxide. Then, the stomach of each was removed, inflated by injecting 10 ml of 5% formalin neutral buffer solution, and immersed in 1% formalin neutral buffer solution for 30 minutes or more to be fixed. The stomach was incised along the greater curvature and then the length of each erosion in the glandular portion was determined under dissecting microscope. The sum of the length of erosions per stomach was defined as ulcer index (UI).
(§1) The effect obtained when 100 mg/kg of the sample compound had been administered was expressed as ulcer formation inhibitory rate (%) as follows: [formula] VOL, TAO: Acid Secretion Inhibition Test In Vivo i) Meaning

acid secretion in vivo = experiment: VOL, TAO: Acid Secretion Inhibition Test In Vivo; set-up: species or system rat (male Crj:Donryu); conditions: 100 mg/kg oral, pylorus-ligated rats, histamine 30 mg/kg s.c.
Procedure: as §1
Inhibitory effect on acid secretion in vivo is confirmed.
Male Crj:Donryu rats (7-week-old) were fasted overnight but allowed free access to water. In each group, 8 to 10 of these rats were used under urethane anesthesia (1.25 g/kg). The sample compound dissolved or suspended in an aqueous solution of 0.5% sodium carboxymethylcellulose or 0.05% Tween 80 was orally administered (100 mg/10 ml/kg). 30 minutes later, the abdomen of each was incised and the pylorus was ligated. 30 minutes after the ligation, 30 mg/kg of histamine dissolved in physiological saline was subcutaneously administered and, 3 hours thereafter, the rat was sacrificed with carbon dioxide. Immediately thereafter, each stomach was removed and the gastric contents were collected and each volume was determined. The total acid output was determined by titration of the gastric juice with 0.1N NaOH.
(§2) With respect to the gastric juice volume (VOL) and the total acid output (TAO), the effects obtained when 100 mg/kg of the sample compound had been administered were expressed as their respective inhibitory rates (%) as follows: [formula] CAP: Acid Secretion Inhibition Test In Vitro i) Meaning

[1] = test system: isolated gastric fundic gland; experiment: CAP: Acid Secretion Inhibition Test In Vitro ([14C]-aminopyrine uptake); format: cell-based, rabbit (male Japanese White); conditions: Oryctolagus cuniculus, 40 min, read-out: CAP: acid secretion inhibitory rate
Procedure: as §2
The acid secretion inhibitory activity in a cell level is studied. It can also be used for studying the mechanism of the effect.
ii-a) Preparation of isolated gastric fundus gland suspension
First, an isolated gastric fundic gland sample was prepared. […] Immediately thereafter, the stomach was removed and, after its pyloric and cardiac antrum were severed, incised along its greater curvature into two sheets. The gastric contents adhering to the mucosal surface was washed out with ice-cooled PBS (-) and then carefully washed therein. The gastric wall was spread on a cork board with its mucosal surface facing up and the feed and mucus thereon were completely removed with sterile gauze. The mucosa was separated therefrom by a spatula and then collected in ice-cooled PBS (-). After being washed twice with PBS (-), the mucosa was minced into 2-3 mm^3 pieces by scissors. These pieces were further washed twice with a nutrient solution. The nutrient solution comprises 132.4 mM of NaCl, 5.4 mM of KCl, 5 mM of Na2 HPO4.12H2 O, 1 mM of NaH2 PO4.2H2 O, 1.2 mM of MgSO4, 1 mM of CaCl2, 25 mM of HEPES, 2 mg/ml of glucose, and 1 mg/ml of BSA. Into 70 ml of the nutrient solution containing 1 mg/ml of collagenase, minced mucosal pieces were dispersed and intensely stirred in a conical flask with a stirrer at 37° C. for 40 to 60 minutes. During this period, 100% O2 was sprayed on the nutrient solution surface and the pH was appropriately measured such that it was immediately adjusted to pH 7.4, when the value was therebelow, with a base. The nutrient solution was added to the reaction solution so as to attain the total amount of about 200 ml. After being filtered through a mesh, the suspension was divisionally introduced into 50 ml centrifuge tubes and left for 15 minutes such that gastric fundic gland was deposited. The supernatant was repeatedly removed by an aspirator, dispersed in the nutrient solution, and then left such that the gastric fundic gland was washed three times. At this time, without using a pipette, the suspension was alternately introduced into two centrifuge tubes so as to effect dispersion. The number of cells was counted under microscope and adjusted to 1.6×10^6 cells/ml.
ii-b) [^14 C]-aminopyrine uptake test
Then, [^14 C]-aminopyrine uptake test was performed. After an Eppendorf tube was weighed, 10 μl (final concentration: 10^-5 M) of histamine dissolved in the above-mentioned nutrient solution, 10 μl (final concentration: 10^-5 M) of the test compound dissolved in DMSO, and 10 μl (final concentration: 0.05 μCi/ml) of [^14 C]-aminopyrine diluted with the nutrient solution were introduced therein and then 970 μl of the isolated gastric fundic gland suspension prepared above was added thereto. Subsequently, this mixture was shaken at 37° C. for 40 minutes at 125 cycles/minute. After being centrifuged for 30 minutes, 200 μl of its supernatant was collected into a mini-vial, while the rest was removed by an aspirator. The gland pellet was completely dried as the tube with its lid being opened was kept for one night in a drying oven at 80° C. and then the lid was closed and the weight was determined at room temperature. Then 100 μl of 1N KOH was added thereto and the tube with its lid being closed was treated at 60° C. for 1 to 2 hours so as to dissolve the pellet. Then, the contents thereof were transferred to a mini-vial. Into the mini-vial containing the supernatant or gland pellet, 4 ml of Atomlite™ was added and then the radioactivity was measured by a liquid scintillation counter. […]

Male Slc:ICR mice = test system: Male Slc:ICR mice; set-up: species or system mouse (male Slc:ICR); conditions: mouse, in vivo
Procedure: AT: Single Dose Toxicity Pretest
Male Slc:ICR mice (5-week-old) were used. Each group has 3 to 5 mice and each mouse was fasted, but allowed free access to water, for 4 to 5 hours from 9 a.m. in the test day. Then, 2,000 mg/10 ml/kg of the sample compound dissolved or suspended in an aqueous solution of 0.5% sodium carboxymethyl cellulose was orally administered thereto. To a control, only the vehicle was administered. […] The body weight was measured before and after the fasting as well as at the same time everyday. The dead animals were immediately subjected to autopsy and their organs were observed microscopically. Also, the living animals were sacrificed with ether or carbon dioxide one week after the administration and then their organs were observed microscopically.
The toxicity at the single dose of 2,000 mg/kg of the sample compound was expressed as being classified into 5 levels.
5: Mortality rate is 0%; no toxicity is found at all both in behavior and organs.
4: Mortality rate is 0%; while no toxicity is found in organs, slight toxicity is observed in behavior and body weight increase.
3: While there is a dead animal (though not all the animals are dead), no toxicity is found in organs.
2: Regardless of whether there is a dead animal or not, toxicity is found in organs.
1: All the animals are dead.

Helicobacter pyroli = experiment: AHP: Antibacterial Activity Test Against Helicobacter pyroli (agar dilution MIC); format: cell-based, Helicobacter pyroli NCTC 11637; conditions: for MIC: Helicobacter, NCTC11637, 168 h, HP NCTC 11637, brucella agar with 5% horse blood, 7 days, read-out: AHP: minimum inhibitory concentration (MIC)
Procedure: Antibacterial Activity Test Against Helicobacter pyroli i) Meaning The minimum inhibitory concentration (MIC) against Helicobacter pyroli (microaerophilic gram-negative bacterium which is supposed to deeply involve in pathogenesis, relapse, and recrudescence of ulcer, referred to as "HP" in the following) is measured so as to find out compounds which have antimicrobial activity against Helicobacter pyroli. ii) Method MICs were determined by the agar dilution method. The stock culture (-80° C.) of HP NCTC 11637 was thawed and cultured on tripticase soy agar supplemented with 5% sheep blood at 37° C. in an atmosphere of 5% O2, 10% CO2, and 85% N2. Grown colonies were transferred to the same plate and precultured for 3 days under the same condition. […] 10 μl of the bacterial suspension for inoculation (about 10^3 cfu) was inoculated on this plate and cultured for 7 days under the same condition as that of preculture.

in vitro = conditions: rabbit, gastric mucosal cells
[2] = test system: gastric corpus mucosa cells; conditions: rabbit, gastric mucosal cells, 4 h, 100 µM
[3] = MTT: Cell Damaging and Protecting Effect Test; conditions: rabbit, gastric mucosal cells
gastric mucosa = experiment: PD: Gastric Mucosal Integrity Test (gastric mucosal potential difference); format: in vivo, rat (male Crj:SD); set-up: key: 5: Same as the control with no recognizable damage at all.; 4: Though a slight PD-decreasing tendency suggesting a slight possibility of mucosal damage is found, there is no problem.; 3: Though a weak decrease in PD and a possibility of a weak mucosal damage is recognized, there is no substantial problem.; 2: Medium degree of decrease in PD is found and a mucosal damage is recognized.; 1: Heavy degree of decrease in PD is found and a remarkable mucosal damage is recognized; conditions: 100 mg/kg into chamber, rats, 60 minutes
Procedure: PD: Gastric Mucosal Integrity Test
In this case, since the sample compound has a necrotizing effect, it is inappropriate as an anti-ulcer medicament.
Therefore, the gastric mucosal potential difference (PD), which reflects the integrity of the gastric mucosa, is measured so as to confirm that the sample compound has no damaging effect on gastric mucosa, which is toxicity at gastric mucosal level.
Male Crj:SD rats (7 to 8-week-old) were fasted overnight, but allowed free access to water, and then, under urethane anesthesia (1.25 g/kg, i.p.), fixed to a cork board on its back. The abdomen of each rat was incised, and a small incision was made in the forestomach. Then, the inside of the stomach was washed with physiological saline heated at 37° C. From the forestomach, along the greater curvature thereof, the stomach was incised without damaging blood vessels. After the height of the cork board was adjusted on a jack, the stomach was mounted on ex vivo chamber. The area of the gastric mucosa exposed to the inside of this chamber was 2.5 cm^2. The inside of the chamber was perfused with physiological saline warmed at 37° C. by micro tube pump. By using an agar bridge containing 3M KCl, the potential difference between the chamber and the abdominal cavity was measured by a PD meter. Here, the rectal temperature was measured to control the body temperature during the experiment. After the PD was sufficiently stabilized, the perfusate was stopped and then 100 mg/10 ml/kg of the sample compound dissolved or suspended in an aqueous solution of 0.5% sodium carboxymethyl cellulose or 0.05% Tween 80 was administered into the chamber, while PD was recorded for 60 minutes. To a control, the vehicle was administered.
The change in PD during 60 minutes after the administration of 100 mg/kg of the sample compound was collectively studied and, with reference to the positive control, classified into 5 levels as follows:
5: Same as the control with no recognizable damage at all.
3: Though a weak decrease in PD and a possibility of a weak mucosal damage is recognized, there is no substantial problem.
2: Medium degree of decrease in PD is found and a mucosal damage is recognized.
1: Heavy degree of decrease in PD is found and a remarkable mucosal damage is recognized.

[4] = 10^-5 M compound, 10^-5 M histamine, rabbit isolated gastric fundic gland, 37° C., 40 minutes

SMILES	WIS: ulcer formation inhibitory rate (stress ulcer) [%]	inhibition at 10 µM [1, 4] [%]	AT: toxicity at single dose, 5 levels (Male Slc:ICR mice)	other results
CC(C)=CCC/C(C)=C/COc1ccc(C(=O)NCCN2CCCCC2)cc1 [Example 3]	79	100	4	TAO: total acid output inhibitory rate (acid secretion in vivo): 85%; VOL: gastric juice volume inhibitory rate (acid secretion in vivo): 68%
CC(C)=CCC/C(C)=C/COc1ccc(C(=O)NCCN2CCN(c3nc4ccccc4s3)CC2)cc1 [Example 59]	47	93	–	MIC (Helicobacter pyroli): < 3.13 µg/mL; antibacterial activity against Helicobacter pyroli (Helicobacter pyroli; result in words): having an antibacterial activity against Helicobacter pyroli; cytotoxicity at 4 h, 100 µM (in vitro): 7%
CC(C)=CCCC(C)=CCOc1ccc(C(=O)NCCN2CC(C)OC(C)C2)cc1 (stereo not drawn) [Example 34]	38	–	–	MTT: cell damaging rate [2]: 14%
CC(C)=CCC/C(C)=C/COc1ccc(C(=O)NCCN2CCN(CC(=O)N3CCCC3)CC2)cc1 [Example 55]	–	–	–	inhibition at 10 µM [1]: 99.2%; cytotoxicity at 4 h, 100 µM [3]: 27%
CC(C)Cc1cc(C(=O)NCCN2CCN(CC(C)C)CC2)ccc1OCc1ccc(F)cc1 [Example 62]	77	102	3	MIC (Helicobacter pyroli): < 3.13 µg/mL
CC(C)=CCC/C(C)=C/CC/C(C)=C/COc1ccc(C(=O)NCCN2CCCCC2)cc1 [Example 10]	47	98	4	PD: change in gastric mucosal potential difference, 5 levels (gastric mucosa): 5
CC(C)=CCC/C(C)=C/COc1ccc(C(=O)NCCN2CCN(CC(C)C)CC2)cc1 [Example 46]	78	100	–	TAO: total acid output inhibitory rate (acid secretion in vivo): 34%; VOL: gastric juice volume inhibitory rate (acid secretion in vivo): 33%; cytotoxicity at 4 h, 100 µM (in vitro): 68%
